In patent US12448363B2, “Kinase inhibitors” (Vidya Therapeutics, Inc., priority 2020, dated 2025):

Legend:
BTK = BTK (Homo sapiens, UniProt Q06187); assay: Assay to determine activity against BTK (EZ reader, FLPeptide); assay type: biochemical; set-up: purchased Carna; settings: ATP (1 mM), BTK (2 nM), room temperature for 90 minutes
Procedure: Solutions of compounds (test or control) in DMSO were prepared at the desired concentrations, and serially diluted to 11 concentrations by 3-fold dilution in 384pp-plate using TECAN EVO200. 20 nL of stock were transferred to 384 plate using Echo550. DMSO was used as vehicle control.
Two separate solutions were prepared—an ATP solution containing MgCl2 (10 mM), Brij-35 (0.01%), DTT (2 mM), BSA (0.05%), EGTA (1 mM), HEPE (pH7.5) (50 mM), FLPeptide (6 uM) and ATP (4 mM); and a BTK solution containing MgCl2 (10 mM), Brij-35 (0.01%), DTT (2 mM), BSA (0.05%), EGTA (1 mM), HEPE (pH7.5) (50 mM) and BTK (2.67 nM). […] (Note the final volume of each well was 20 uL containing MgCl2 (10 mM), Brij-35 (0.01%), DTT (2 mM), BSA (0.05%), EGTA (1 mM), HEPE (pH7.5) (50 mM), FLPeptide (1.5 uM), ATP (1 mM) and BTK (2 nM).
The plates were incubated at room temperature for 90 minutes and then stopping buffer added (75 uL, containing 0.5 M EDTA) to terminate the reaction. Samples from each well were analyzed using EZ reader. The % remaining activity was calculated using read conversion ratio (CR) according to the equation: […]
XLFit (equation 201) was used to calculate IC50s by floating both bottom and top.
With respect to BTK activity, Table 4 lists activity as follows: • “A” denotes an IC50 of less than 10 nM, • “B” denotes an IC50 of from 10 nM to less than 100 nM; and • “C” denotes and IC50 of 100 nM or more.

[1] = system: BTK Activity in RAMOS B Cells; assay: Assay to determine BTK activity in RAMOS B cells (anti-IgM, FLIPR Calcium 6); assay type: cell-based; settings: EC80 anti-IgM, FLIPR calcium read
Procedure: On the day before assay, Ramos B cells were plated in plating medium (RPMI1640 medium containing 1% FBS and 1× pencillin-streptomycin). On the day of the assay, 2× dye solution was prepared following the manual of the FLIRP Calcium 6 Assay Kit: Dilute the dye with assay buffer (20 mM HEPES in 1×HBSS, pH7.4); Add probenecid to the final concentration of 5 mM; vortex vigorously for 1-2 minutes. Cells were collected by centrifuging, and the pellet was resuspended in plating medium. After counting, cells were resuspended at a density of 3×10^6/ml in plating medium. Equal volume of 2× dye solution was added to the cell suspension. Cells were then plated at 20 μl/well into a 384-well poly-D-lysine coated plate. Plate was centrifuged at 1000 rpm for 3 minutes and then incubated at 37° C. for 2 hours followed by an additional 15-minute incubation at 25° C. Compounds were prepared at 3× concentration in dilution buffer (20 mM HEPES and 0.1% BSA in 1×HBSS, pH 7.4). Serially diluted compound was transferred from source plate to a 384-well compound plate by using an Echo 550 (Labcyte). 20 μl/well compound dilution buffer was added to the compound plate and mixed on plate shaker for 2 mins. 4×EC80 of Anti-IgM (Jackson ImmunoResearch) was prepared in dilution buffer and 20 μl/well was added to a new 384-well compound plate. After 60 mins of incubation at 25° C. in the dark; cell plate, compound plate containing 4×EC80 of anti-IgM and FLIPR tips were placed into FLIPR (Molecular Devices). 10 ul/well of 4×EC80 anti-IgM was transferred to the cell plate by FLIPR. Plates were read for 160 sec with 1 sec interval.
With respect to Ramos activity, Table 9 lists activity as follows: • “A” denotes an IC50 of less than 10 nM; • “B” denotes an IC50 of from 10 nM to less than 100 nM; and • “C” denotes and IC50 of 100 nM or more.

Chain of BTK (Q06187 whole entry): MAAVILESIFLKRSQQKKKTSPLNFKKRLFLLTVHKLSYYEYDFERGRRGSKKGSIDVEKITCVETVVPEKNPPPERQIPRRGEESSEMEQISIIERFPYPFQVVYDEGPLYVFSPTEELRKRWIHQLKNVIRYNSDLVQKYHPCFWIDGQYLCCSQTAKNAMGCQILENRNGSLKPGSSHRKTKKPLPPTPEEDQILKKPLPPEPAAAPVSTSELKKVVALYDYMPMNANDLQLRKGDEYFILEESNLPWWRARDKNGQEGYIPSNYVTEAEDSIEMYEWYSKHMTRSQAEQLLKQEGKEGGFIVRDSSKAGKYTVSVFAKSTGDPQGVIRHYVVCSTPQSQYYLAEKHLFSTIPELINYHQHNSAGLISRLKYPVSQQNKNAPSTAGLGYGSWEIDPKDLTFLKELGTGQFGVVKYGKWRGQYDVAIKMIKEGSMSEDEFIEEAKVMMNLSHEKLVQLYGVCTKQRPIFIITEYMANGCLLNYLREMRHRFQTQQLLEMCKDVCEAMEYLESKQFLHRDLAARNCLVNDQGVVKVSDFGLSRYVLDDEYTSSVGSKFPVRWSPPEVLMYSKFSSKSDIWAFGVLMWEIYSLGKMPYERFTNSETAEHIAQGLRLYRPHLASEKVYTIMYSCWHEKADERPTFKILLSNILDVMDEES

Compound | IC50 (BTK) [µM] | IC50 [1] [µM] | IC50 ([1]; Homo sapiens, Ramos) [µM]
C=CC(=O)N1CCc2c(cccc2-c2c(F)cc(C(N)=O)c3[nH]c(C)c(F)c23)C1 (atropisomer, axis not shown) [Compound 20e, (S)-4-(2-acryloyl-1,2,3,4-tetrahydroisoquinolin-5-yl)-3,5-difluoro-2-methyl-1H-indole-7-carboxamide] | < 0.01 | < 0.01 | –
C=CC(=O)N1CCc2c(cccc2-c2c(F)cc(C(N)=O)c3[nH]c(C)c(F)c23)C1 (atropisomer, axis not shown) [Compound 20f, (R)-4-(2-acryloyl-1,2,3,4-tetrahydroisoquinolin-5-yl)-3,5-difluoro-2-methyl-1H-indole-7-carboxamide] | ≥ 0.1 | ≥ 0.1 | –
C=CC(=O)N1CCc2c(cccc2-c2c(F)cc(C(N)=O)c3[nH]c(C)c(C#N)c23)C1 (atropisomer, axis not shown) [Compound 20h, (S)-4-(2-acryloyl-1,2,3,4-tetrahydroisoquinolin-5-yl)-3-cyano-5-fluoro-2-methyl-1H-indole-7-carboxamide] | ≥ 0.1 | ≥ 0.1 | –
C=CC(=O)N1CCc2c(cccc2-c2c(F)cc(C(N)=O)c3[nH]c(C)c(C#N)c23)C1 (atropisomer, axis not shown) [Compound 20i, (R)-4-(2-acryloyl-1,2,3,4-tetrahydroisoquinolin-5-yl)-3-cyano-5-fluoro-2-methyl-1H-indole-7-carboxamide] | < 0.01 | 0.01 to 0.1 | –
C=CC(=O)N1CCc2c(cccc2-c2c(F)c(F)c(C(N)=O)c3[nH]c(C)c(Cl)c23)C1 (atropisomer, axis not shown) [Compound 21b, (R)-4-(2-acryloyl-1,2,3,4-tetrahydroisoquinolin-5-yl)-3-chloro-5,6-difluoro-2-methyl-1H-indole-7-carboxamide] | < 0.01 | < 0.01 | –
C=CC(=O)N1CCc2c(cccc2-c2c(F)c(F)c(C(N)=O)c3[nH]c(C)c(Cl)c23)C1 (atropisomer, axis not shown) [Compound 21c, (S)-4-(2-acryloyl-1,2,3,4-tetrahydroisoquinolin-5-yl)-3-chloro-5,6-difluoro-2-methyl-1H-indole-7-carboxamide] | ≥ 0.1 | ≥ 0.1 | –
C=CC(=O)N1C[C@H]2CCN(c3c(F)cc(C(N)=O)c4[nH]c(C)c(Cl)c34)C[C@@H]2C1 (racemic) [Compound 39, 4-(trans-2-acryloyloctahydro-5H-pyrrolo[3,4-c]pyridin-5-yl)-3-chloro-5-fluoro-2-methyl-1H-indole-7-carboxamide] | ≥ 0.1 | – | ≥ 0.1
C=CC(=O)N1CCc2c(cccc2-c2c(F)cc(C(N)=O)c3[nH]c(C)c(Cl)c23)C1 (single isomer, unassigned) [Compound 20c] | ≥ 0.1 | ≥ 0.1 | –
C=CC(=O)N1CCc2c(-c3c(F)cc(C(N)=O)c4[nH]c(C)c(Cl)c34)cccc2[C@H]1C (single isomer, unassigned) [Compound 22b] | ≥ 0.1 | ≥ 0.1 | –
C=CC(=O)N1CCc2c(-c3c(F)cc(C(N)=O)c4[nH]c(C)c(Cl)c34)cccc2[C@@H]1C (single isomer, unassigned) [Compound 22c] | ≥ 0.1 | – | ≥ 0.1
C=CC(=O)N1CCc2c(-c3c(F)cc(C(N)=O)c4[nH]c(C)c(Cl)c34)cccc2[C@@H]1C (single isomer, unassigned) [Compound 22d] | ≥ 0.1 | ≥ 0.1 | –
C=CC(=O)N1CCc2c(-c3c(F)cc(C(N)=O)c4[nH]c(C)c(Cl)c34)cccc2[C@H]1C (single isomer, unassigned) [Compound 22e] | < 0.01 | < 0.01 | –
C=CC(=O)N1Cc2cccc(-c3c(F)cc(C(N)=O)c4[nH]c(C)c(Cl)c34)c2C2(CC2)C1 (single isomer, unassigned) [Compound 24c] | 0.01 to 0.1 | – | ≥ 0.1
C=CC(=O)N1Cc2cccc(-c3c(F)cc(C(N)=O)c4[nH]c(C)c(Cl)c34)c2C2(CC2)C1 (single isomer, unassigned) [Compound 24d] | ≥ 0.1 | ≥ 0.1 | –
C=CC(=O)N1CCCc2c(cccc2-c2c(F)cc(C(N)=O)c3[nH]c(C)c(Cl)c23)C1 (single isomer, unassigned) [Compound 25c] | ≥ 0.1 | – | ≥ 0.1
C=CC(=O)N1CCCc2c(cccc2-c2c(F)cc(C(N)=O)c3[nH]c(C)c(Cl)c23)C1 (single isomer, unassigned) [Compound 25d] | 0.01 to 0.1 | ≥ 0.1 | –
C=CC(=O)N1CCC2CCN(c3c(F)cc(C(N)=O)c4[nH]c(C)c(Cl)c34)CC21 (single isomer, unassigned) [Compound 29b, 4-(1-acryloyloctahydro-6H-pyrrolo[2,3-c]pyridin-6-yl)-3-chloro-5-fluoro-2-methyl-1H-indole-7-carboxamide] | < 0.01 | 0.01 to 0.1 | –
C=CC(=O)N1CCCC(c2c(F)cc(C(N)=O)c3[nH]c(C)c(Cl)c23)C1 (stereo not shown) [Compound 2, 4-(1-acryloylpiperidin-3-yl)-3-chloro-5-fluoro-2-methyl-1H-indole-7-carboxamide] | < 0.01 | – | < 0.01
C=CC(=O)N1CCCC(c2c(F)c(F)c(C(N)=O)c3[nH]c(C)c(Cl)c23)C1 (stereo not shown) [Compound 3, 4-(1-acryloylpiperidin-3-yl)-3-chloro-5,6-difluoro-2-methyl-1H-indole-7-carboxamide] | < 0.01 | – | < 0.01
C=CC(=O)N1CCC=C(c2c(F)c(F)c(C(N)=O)c3[nH]c(C)c(C#N)c23)C1 [Compound 5, 4-(1-acryloyl-1,2,5,6-tetrahydropyridin-3-yl)-3-cyano-5,6-difluoro-2-methyl-1H-indole-7-carboxamide] | < 0.01 | – | 0.01 to 0.1
C#CC(=O)N1CCC[C@H](c2c(F)cc(C(N)=O)c3[nH]c(C)c(Cl)c23)C1 [Compound 7, (R)-3-chloro-5-fluoro-2-methyl-4-(1-propioloylpiperidin-3-yl)-1H-indole-7-carboxamide] | < 0.01 | – | < 0.01
C#CC(=O)N1CCC[C@@H](c2c(F)cc(C(N)=O)c3[nH]c(C)c(Cl)c23)C1 [Compound 8, (S)-3-chloro-5-fluoro-2-methyl-4-(1-propioloylpiperidin-3-yl)-1H-indole-7-carboxamide] | < 0.01 | – | < 0.01
C=CC(=O)N1CC(F)CC(c2c(F)cc(C(N)=O)c3[nH]c(C)c(Cl)c23)C1 (stereo not shown) [Compound 9, 4-(1-acryloyl-5-fluoropiperidin-3-yl)-3-chloro-5-fluoro-2-methyl-1H-indole-7-carboxamide] | < 0.01 | – | < 0.01
C=CC(=O)N1CCCC(c2c(F)c(F)c(C(N)=O)c3[nH]c(C)c(C#N)c23)C1 (stereo not shown) [Compound 10, 4-(1-acryloylpiperidin-3-yl)-3-cyano-5,6-difluoro-2-methyl-1H-indole-7-carboxamide] | 0.01 to 0.1 | – | 0.01 to 0.1
C=CC(=O)N1CCC[C@H](c2c(F)cc(C(N)=O)c3[nH]c(C)c(C(F)F)c23)C1 [Compound 11, (R)-4-(1-acryloylpiperidin-3-yl)-3-(difluoromethyl)-5-fluoro-2-methyl-1H-indole-7-carboxamide] | ≥ 0.1 | – | ≥ 0.1
C=CC(=O)N1CCC[C@@H](c2c(F)cc(C(N)=O)c3[nH]c(C)c(C(F)F)c23)C1 [Compound 12, (S)-4-(1-acryloylpiperidin-3-yl)-3-(difluoromethyl)-5-fluoro-2-methyl-1H-indole-7-carboxamide] | ≥ 0.1 | – | ≥ 0.1
